The results in this text go back to patent US7820060B2, “Synergistic biocide and process for controlling growth of microorganisms” (Hercules Incorporated, priority 2005, dated 2010).

Test [1] has as its system artificial bacterial consortia. The test is described as follows: Standard challenge assay: numbers of bacteria surviving after contact time in mineral salt solution. Type of test: cell-based. The procedure: The antibacterial efficacy of monochloramine and dichloramine alone and in combination were compared in a standard challenge assay. To perform the assay, artificial bacterial consortia were prepared using the same species as those in the microtiter assays. A mineral salt solution was prepared by combining K2HPO4 (1.2 mg/l), KH2PO4 (0.624 mg/l), (NH4)2SO4 (0.05 g/l), and NaCl (0.1 mg/l). This solution was sterilized by autoclaving (121° C., 15 min) and, after cooling, it was amended with the following: 10 ml/l of filter sterilized solution of 0.5% (w/v) of CaCl2.6H2O; 10 ml/l of filter sterilized solution of 2% MgSO4.7H2O; filter-sterilized glucose (0.01 g/l, final concentration); 1 ml of a filter-sterilized solution containing Na2EDTA (ethylene diamine tetra acetate) (1.58 g/100 ml), ZnSO4.7H2O (0.7 g/100 ml); MnSO4—H2O (0.18 g/100 ml); FeSO4.7H2O (0.16 g/100 ml); COCl2.6H2O (0.052 g/100 ml); NaMoO4.2H2O (0.042 g/100 ml); and CuSO4.5H2O (0.047 g/100 ml). Equal volumes of cell suspensions of each strain were then combined to prepare the consortium. The bacterial consortium was distributed into sterile glass containers and immediately used in challenge studies. To determine the effect of pH of the mineral salt solution on efficacy of monochloramine, dichloramine, and combinations thereof, the pH of the cell suspension was adjusted to desired levels using dilute solutions of sodium hydroxide or phosphoric acid, as appropriate. The pH values tested in the challenge studies were 5.0, 6.0, 7.0, and 8.0. The pH values represent the pH of whitewater typical of the majority of paper mills.
After the monohaloamine solution was prepared, the quantity needed to achieve a desired final concentration was transferred to the previously prepared bacterial consortium. Samples of the bacterial consortium were collected immediately before addition of the monochloramine and after contact times, usually 1, 10, and 20 minutes. Controls were untreated cell suspensions.
To perform a challenge study, monochloramine was prepared to a desired concentration by mixing appropriate quantities of 30% ammonium hydroxide and 6.2% percent sodium hypochlorite in a volume of deionized water in such a manner as to achieve equimolar ratios of Cl^− and NH2^+. After preparation of the monochloramine solution, the purity of the solution was verified by determining its absorbance spectrum. To prepare a dichloramine solution, the pH of a monochloramine solution was adjusted to down to 5.0. This ensured conversion of monochloramine to dichloramine. […] The concentrations of monochloramine and dichloramine in the solutions were confirmed by measuring total chlorine concentration by Hach DPD chlorine test.
In this example, a measured amount of monochloramine and a measured amount of dichloramine were added to a consortium of bacteria prepared to a density of approximately 1×10^6 cells per milliliter and the cell suspension incubated for a selected time. The consortium of bacteria is described above. The effectiveness of the combination of biocides was determined by measuring the number of bacteria that survived after the contact time. The efficacy of monochloramine, dichloramine, and combinations of the two actives were compared at different pH values. Bacterial consortia were prepared in mineral salts solutions with pH adjusted to selected values and challenged with monochloramine and dichloramine and combinations thereof. Samples for enumerating the number of surviving bacteria were collected at selected time intervals.
Although synergy was detected when monochloramine and dichloramine were combined in a 1:1 ratio, the results of Example 1 illustrated that optimum ratios were larger than 1:1 (monochloramine to dichloramine). In this example, bacterial consortia were prepared with the pH of the mineral salts solution adjusted to selected levels immediately before the cells were added. […]

Test [2] deals with multi-species bacterial consortium (artificial consortium). In words: Dose protocol: growth inhibition (O.D. 650 nm, 4 hours) of artificial bacterial consortium in synthetic white water, I50 and synergy index. It counts as cell-based. The note with it: for Synergy Index: <1.00 synergistic; for mg/l NH2Cl (alone or in the mixture) to yield 50% inhibition (I50) / mg/l NHCl2 (alone or in the mixture) to yield 50% inhibition (I50): concurrent feed, mg/l as Cl2. As for the experimental part: The efficacies of the active materials and blends were determined using a dose protocol. The actives were evaluated in synthetic white water (see Smith et al., U.S. Pat. […] The materials were tested against multi-species bacterial consortium (also referred to as an artificial consortium) containing approximately equal numbers of six bacterial strains. Although the test strains are representative of organisms present in paper mill systems, the effect is not limited to these bacteria. Two of the strains were Klebsiella pneumonia (ATCC 13883) and Pseudomonas aeruginosa (ATCC 15442). The other four strains were isolated from paper mill systems and have been identified as Curtobacterium flaccumfaciens, Burkholderia cepacia, Bacillus maroccanus, and Pseudomonas […]. Each strain was grown on Tryptic Soy Agar overnight at 37° C. Sterile cotton-tipped swabs were used to aseptically transfer cells to a sterile solution of saline. Each cell suspension was prepared to a desired concentration as measured by turbidity before equal volumes of each strain were then combined to prepare the consortium. The bacterial consortium was distributed into the wells of a microtiter plate before additions of monohaloamine and/or dihaloamine were made. The microtiter plates were incubated at 37° C. Optical density (O.D.) readings at 650 nm were taken initially (t0) and after time 4 hours (t4) of incubation. […] The inhibition values can be plotted versus dosage for each active and the particular blend. […] Synergy Index (SI)=(QA÷Qa)+(QB÷Qb) where: • QA=quantity of compound A in mixture, producing the end point • Qa=quantity of compound A, acting alone, producing the end point • QB=quantity of compound B in mixture, producing the end point • Qb=quantity of compound B, acting alone, producing the end point […] A measured amount of monochloramine and a measured amount of dichloramine were added to a suspension of bacteria and the cell suspension incubated for a selected time period. The effectiveness of the combination of biocides was determined by measuring growth or lack thereof after an additional appropriate incubation time.

[3] abbreviates: pH 5.5, based on 50% inhibition.
Setting [4] is: pH 8.0, based on 50% inhibition.

For the compound `NCl` [NH2Cl, monochloramine], the “Numbers of bacteria surviving after a 20 minute contact time (average of three values)” value (from here on “Numbers of bacteria surviving”) in test [1] (pH 5.0, 0.5 mg/l single active) is recorded as 4.97 log10; in test [1] (pH 5.0, 1.0 mg/l single active), 3.94 log10; in test [1] (pH 6.0, 0.5 mg/l single active) it was 5.14 log10; in test [1] (pH 6.0, 1.0 mg/l single active), 5.14 log10; in test [1] (pH 7.0, 0.5 mg/l single active), 5.47 log10; in test [1] (pH 7.0, 1.0 mg/l single active) it was 5.17 log10. Moreover, the “Numbers of bacteria surviving” value in test [1] (pH 8.0, 0.5 mg/l single active) was found to be 5.74 log10; in test [1] (pH 8.0, 1.0 mg/l single active), 5.71 log10. Moreover, the “Synergy Index” value in test [2] (setting [3]) and in test [2] (setting [4]) was 1.00 each time. In addition, the “mg/l NH2Cl (alone or in the mixture) to yield 50% inhibition (I50)” value in test [2] (pH 5.5, synthetic white water) came out at 18.21 mg/L; in test [2] (pH 8.0, synthetic white water), 7.96 mg/L.
With `ClNCl` [NHCl2, dichloramine], the “Numbers of bacteria surviving” value was 5.58 log10 in test [1] (pH 5.0, 0.5 mg/l single active); 4.47 log10 in test [1] (pH 5.0, 1.0 mg/l single active); 5.17 log10 in test [1] (pH 6.0, 0.5 mg/l single active); 3.62 log10 in test [1] (pH 6.0, 1.0 mg/l single active); 5.52 log10 in test [1] (pH 7.0, 0.5 mg/l single active); 5.40 log10 in test [1] (pH 7.0, 1.0 mg/l single active). The “Numbers of bacteria surviving” value in test [1] (pH 8.0, 0.5 mg/l single active) was 5.62 log10; in test [1] (pH 8.0, 1.0 mg/l single active), 5.26 log10. Further, the “Synergy Index” value in test [2] (setting [3]) and in test [2] (setting [4]) was 1.00 in each case. Further, the “mg/l NHCl2 (alone or in the mixture) to yield 50% inhibition (I50)” value in test [2] (pH 5.5, synthetic white water) was 17.23 mg/L; in test [2] (pH 8.0, synthetic white water), 0.59 mg/L.
